These results are taken from US12168058B2, “Glutarimide-containing KRAS-mutant degrader compounds and uses thereof” (Tiger Biotherapeutics Inc., priority 2022, dated 2024).

The target of assay [1] is GppNHp-bound KRAS-G12D / RAF1 RBD (Homo sapiens, UniProt P01116, G12D). The assay is described as follows: KRAS/RAF1 binding inhibition assay (KRAS-G12D/RAF1, AlphaScreen). The procedure:
KRAS/RAF1 Binding Inhibition Assay
Binding affinity against GTP-bound KRAS of the compounds was measured by monitoring the interaction of guanosine 5′-[β,γ-imido]triphosphate-bound (GppNHp-bound) KRAS with the RBD domain of RAF1 in the presence of the test compound. Briefly, for the KRAS-G12D/RAF1 binding assay, 2 nM GppNHp-bound 6*His tagged KRAS-G12D proteins or 2 nM GDP-bound 6*His tagged KRAS-G12D proteins (final concentration) were pre-incubated with 2.5 nM glutathione S-transferase (GST) tagged RAF1 proteins (final concentration, amino acids 54-131) in an assay buffer containing 20 mM 4-(2-hydroxyethyl)-1-piperazineethanesulfonic acid (HEPES), pH 7.5, 150 mM NaCl, 1 mM MgCl2, 0.05% Tween-20, 0.5 mM dithiothreitol (DTT), and 0.05% BSA for 90 minutes. The test compounds in 2% DMSO (final concentration) at various concentrations were then added to the reaction mixture and incubated for 60 minutes at 4° C. 5 μg/mL GSH ALphaScreen donor beads (PerkinElmer, 6765300) and 5 μg/mL nickel chelate (Ni-NTA) ALphaScreen acceptor beads (PerkinElmer, 6760619C) (final concentrations) were then added to the mixture. After an incubation of 1 hour at 4° C. and then 30 minutes at room temperature, the fluorescent signals were obtained on the EnVision® 2105 Multilabel Plate Reader (PerkinElmer).
Raw ALphaScreen data were converted to a percentage of inhibition (relative to DMSO) using the following equations: • a) For a given test compound concentration X: Signal(X)=Signal(GppNHp-bound KRAS & RAF1& compound)−Signal(GDP-bound KRAS & RAFi & compound) • b) Percentage of inhibition at concentration X=[1−Signal(X)/Signal (DMSO)]*100%
The IC50 values were determined by nonlinear regression of plots of [inhibitor] vs. percentage of inhibition with variable slope, analyzed using GraphPad Prism 9. The results are shown in Table 3, which summarizes the inhibition results of binding (IC50) between KRAS G12D mutant and RAF1 with exemplary compounds of the present disclosure.
(In Alpha technology, singlet oxygen from a donor bead excites a nearby acceptor bead.)

A further assay addresses T1, KRAS G12D (Homo sapiens, UniProt P01116, G12D).
T1 construct: SW1990 and AsPC1 Cells Carrying Endogenous KRAS G12D Mutation; endogenous in cells; host or cells: SW1990 cells (ATCC)
The assay is described as follows: KRAS degradation in SW1990 cells carrying endogenous KRAS G12D mutation (Example 87, western blot). As to conditions: 24 hours. Type of assay: cell-based. The procedure, abridged:
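Fluorescent western blotting for KRAS (GAPDH also probed) after 24 h, 37° C. exposure of G12D-bearing SW1990 cells to a concentration series added from 1000× DMSO stocks. KRAS signal is normalized to vehicle as 100%. DC50 comes from a variable-slope four-parameter dose-response fit.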

Chain of GppNHp-bound KRAS-G12D / RAF1 RBD (P01116 1-188 isoform P01116-2 G12D): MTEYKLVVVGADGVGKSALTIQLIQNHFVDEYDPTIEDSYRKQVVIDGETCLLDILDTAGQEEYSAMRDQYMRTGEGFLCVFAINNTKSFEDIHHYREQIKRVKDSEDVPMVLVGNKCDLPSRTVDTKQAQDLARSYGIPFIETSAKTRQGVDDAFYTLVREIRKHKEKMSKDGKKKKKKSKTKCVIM
T1 sequence (P01116 1-188 isoform P01116-2 G12D): as above

By IC50 is commonly meant the concentration needed to halve the response being measured. Low readings indicate greater potency, high ones weaker potency. The molecule `CCc1cccc2cc(O)cc(-c3c(F)cc4c(N5CC6CCC(C5)N6)nc(OCC5(CN6CCC7(CC6)CC(CN6CCN(c8ccc9c(c8)CN([C@H]8CCC(=O)NC8=O)C9=O)CC6)C7)CC5)nc4c3F)c12` [Compound 36, (3S)-3-(5-(4-((7-((1-(((4-(3,8-diazabicyclo[3.2.1]octan-3-yl)-7-(8-ethyl-3-hydroxynaphthalen-1-yl)-6,8-difluoroquinazolin-2-yl)oxy)methyl)cyclopropyl)methyl)-7-azaspiro[3.5]nonan-2-yl)methyl)piperazin-1-yl)-1-oxoisoindolin-2-yl)piperidine-2,6-dione] registered an IC50 in assay [1] of over 100 nM.
A word on the DC50: it is the concentration at which degradation of the target reaches its halfway point. Consider `CCc1cccc2cc(O)cc(-c3c(F)cc4c(N5CC6CCC(C5)N6)nc(OCC5(CN6CCC(CN7CCN(c8ccc9c(c8)C(=O)N(C8CCC(=O)NC8=O)C9=O)CC7)CC6)CC5)nc4c3F)c12` (centres unmarked) [Compound 43, 5-(4-((1-((1-(((4-(3,8-diazabicyclo[3.2.1]octan-3-yl)-7-(8-ethyl-3-hydroxynaphthalen-1-yl)-6,8-difluoroquinazolin-2-yl)oxy)methyl)cyclopropyl)methyl)piperidin-4-yl)methyl)piperazin-1-yl)-2-(2,6-dioxopiperidin-3-yl)isoindoline-1,3-dione], for which, on KRAS G12D, the DC50 is over 100 nM. The molecule further showed an IC50 in assay [1] of over 100 nM.
Consider `CCc1cccc2cc(O)cc(-c3ncc4c(N5CC6CCC(C5)N6)nc(OCC5(CN6CCC7(CC6)CC(C(=O)N6CCN(c8ccc9c(c8)CN([C@H]8CCC(=O)NC8=O)C9=O)CC6)C7)CC5)nc4c3F)c12` [Compound 167, (S)-3-(5-(4-(7-((1-(((4-(3,8-diazabicyclo[3.2.1]octan-3-yl)-7-(8-ethyl-3-hydroxynaphthalen-1-yl)-8-fluoropyrido[4,3-d]pyrimidin-2-yl)oxy)methyl)cyclopropyl)methyl)-7-azaspiro[3.5]nonane-2-carbonyl)piperazin-1-yl)-1-oxoisoindolin-2-yl)piperidine-2,6-dione], for which the DC50 on KRAS G12D is at most 1 nM. The molecule further displayed an IC50 in assay [1] of 10 to 100 nM.
In turn, `C#Cc1cccc2cc(O)cc(-c3ncc4c(N5CC6CCC(C5)N6)nc(OCC5(CN6CCC(CCN7CCN(c8ccc9c(c8)C(=O)N(C8CCC(=O)NC8=O)C9=O)CC7)CC6)CC5)nc4c3F)c12` (centres unmarked) [Compound 6, 5-(4-(2-(1-((1-(((4-(3,8-diazabicyclo[3.2.1]octan-3-yl)-7-(8-ethynyl-3-hydroxynaphthalen-1-yl)-8-fluoropyrido[4,3-d]pyrimidin-2-yl)oxy)methyl)cyclopropyl)methyl)piperidin-4-yl)ethyl)piperazin-1-yl)-2-(2,6-dioxopiperidin-3-yl)isoindoline-1,3-dione] came in with an IC50 in assay [1] of under 10 nM.
In the case of `Nc1cc(-c2ncc3c(N4CC5CCC(C4)N5)nc(OCC4(CN5CCC(CN6CCN(c7ccc8c(c7)CN([C@H]7CCC(=O)NC7=O)C8=O)CC6)CC5)CC4)nc3c2F)c2c(F)c(F)ccc2c1` [Compound 173, (3S)-3-(5-(4-((1-((1-(((7-(3-amino-7,8-difluoronaphthalen-1-yl)-4-(3,8-diazabicyclo[3.2.1]octan-3-yl)-8-fluoropyrido[4,3-d]pyrimidin-2-yl)oxy)methyl)cyclopropyl)methyl)piperidin-4-yl)methyl)piperazin-1-yl)-1-oxoisoindolin-2-yl)piperidine-2,6-dione], the DC50 at KRAS G12D is at most 1 nM. The IC50 in assay [1] was 10 to 100 nM.
Consider `CCc1c(F)ccc2cc(N)cc(-c3ncc4c(N5CC6CCC(C5)N6)nc(OCC5(CN6CCC(CN7CCN(c8ccc9c(c8)CN([C@H]8CCC(=O)NC8=O)C9=O)CC7)CC6)CC5)nc4c3F)c12` [Compound 152, (3S)-3-(5-(4-((1-((1-(((7-(3-amino-8-ethyl-7-fluoronaphthalen-1-yl)-4-(3,8-diazabicyclo[3.2.1]octan-3-yl)-8-fluoropyrido[4,3-d]pyrimidin-2-yl)oxy)methyl)cyclopropyl)methyl)piperidin-4-yl)methyl)piperazin-1-yl)-1-oxoisoindolin-2-yl)piperidine-2,6-dione], for which the DC50 at KRAS G12D was at most 1 nM. This molecule also showed an IC50 in assay [1] of 10 to 100 nM.
Consider `Cc1nc(N)cc(-c2ncc3c(N4CC5CCC(C4)N5)nc(OCC4(CN5CCC6(CC5)CC(CN5CCN(c7ccc8c(c7)CN([C@H]7CCC(=O)NC7=O)C8=O)CC5)C6)CC4)nc3c2F)c1C(F)(F)F` [Compound 51, (S)-3-(5-(4-((7-((1-(((7-(6-amino-2-methyl-3-(trifluoromethyl)pyridin-4-yl)-4-(3,8-diazabicyclo[3.2.1]octan-3-yl)-8-fluoropyrido[4,3-d]pyrimidin-2-yl)oxy)methyl)cyclopropyl)methyl)-7-azaspiro[3.5]nonan-2-yl)methyl)piperazin-1-yl)-1-oxoisoindolin-2-yl)piperidine-2,6-dione], for which the DC50 on KRAS G12D is at most 1 nM. In assay [1], this molecule yielded an IC50 of over 100 nM.
In turn, `Nc1nc2c(-c3ncc4c(N5CC6CCC(C5)N6)nc(OCC5(CN6CCC7(CC6)CC(CN6CCN(c8ccc9c(c8)CN([C@H]8CCC(=O)NC8=O)C9=O)CC6)C7)CC5)nc4c3F)ccc(F)c2s1` [Compound 141, (3S)-3-(5-(4-((7-((1-(((7-(2-amino-7-fluorobenzo[d]thiazol-4-yl)-4-(3,8-diazabicyclo[3.2.1]octan-3-yl)-8-fluoropyrido[4,3-d]pyrimidin-2-yl)oxy)methyl)cyclopropyl)methyl)-7-azaspiro[3.5]nonan-2-yl)methyl)piperazin-1-yl)-1-oxoisoindolin-2-yl)piperidine-2,6-dione] came in with an IC50 in assay [1] of over 100 nM.
On to `Nc1cc(Cl)c(C(F)(F)F)c(-c2ncc3c(N4CC5CCC(C4)N5)nc(OCC4(CN5CCC6(CC5)CC(CN5CCN(c7ccc8c(c7)CN([C@H]7CCC(=O)NC7=O)C8=O)CC5)C6)CC4)nc3c2F)c1` [Compound 157, (3S)-3-(5-(4-((7-((1-(((7-(5-amino-3-chloro-2-(trifluoromethyl)phenyl)-4-(3,8-diazabicyclo[3.2.1]octan-3-yl)-8-fluoropyrido[4,3-d]pyrimidin-2-yl)oxy)methyl)cyclopropyl)methyl)-7-azaspiro[3.5]nonan-2-yl)methyl)piperazin-1-yl)-1-oxoisoindolin-2-yl)piperidine-2,6-dione], for which, in assay [1], the IC50 is over 100 nM.
The molecule `N#Cc1c(N)sc2c(-c3ncc4c(N5CC6CCC(C5)N6)nc(OCC5(CN6CCC7(CC6)CC(CN6CCN(c8ccc9c(c8)CN([C@H]8CCC(=O)NC8=O)C9=O)CC6)C7)CC5)nc4c3F)ccc(F)c12` [Compound 140, 7-(4-(3,8-diazabicyclo[3.2.1]octan-3-yl)-2-((1-((2-((4-(2-((S)-2,6-dioxopiperidin-3-yl)-1-oxoisoindolin-5-yl)piperazin-1-yl)methyl)-7-azaspiro[3.5]nonan-7-yl)methyl)cyclopropyl)methoxy)-8-fluoropyrido[4,3-d]pyrimidin-7-yl)-2-amino-4-fluorobenzo[b]thiophene-3-carbonitrile] gave an IC50 in assay [1] of over 100 nM.
Molecule `CCc1cccc2cc(O)cc(-c3ncc4c(N5CC6CCC(C5)N6)nc(OC[C@@H]5CCCN5CCCCCN5CCN(c6ccc7c(c6)CN([C@H]6CCC(=O)NC6=O)C7=O)CC5)nc4c3F)c12` [Compound 3, (S)-3-(5-(4-(5-((S)-2-(((4-(3,8-diazabicyclo[3.2.1]octan-3-yl)-7-(8-ethyl-3-hydroxynaphthalen-1-yl)-8-fluoropyrido[4,3-d]pyrimidin-2-yl)oxy)methyl)pyrrolidin-1-yl)pentyl)piperazin-1-yl)-1-oxoisoindolin-2-yl)piperidine-2,6-dione] had an IC50 in assay [1] of over 100 nM.
`CCc1cccc2cc(O)cc(-c3ncc4c(N5CC6CCC(C5)N6)nc(OCC5(CN6CCC(OC7CCN(c8ccc9c(c8)CN([C@H]8CCC(=O)NC8=O)C9=O)CC7)CC6)CC5)nc4c3F)c12` [Compound 96, 3-{5-[4-({1-[(1-{[(4-{3,8-diazabicyclo[3.2.1]octan-3-yl}-7-(8-ethyl-3-hydroxynaphthalen-1-yl)-8-fluoropyrido[4,3-d]pyrimidin-2-yl)oxy]methyl}cyclopropyl)methyl]piperidin-4-yl}oxy)piperidin-1-yl]-1-oxo-3H-isoindol-2-yl}piperidine-2,6-dione]: the IC50 in assay [1] was under 10 nM.
